Results reported in patent publication US20240277695A1, “FOXO INHIBITORS FOR USE IN THE TREATMENT OF DISEASES CAUSED BY ABNORMAL PROCESSING OF TDP-43 AND/OR FUS PROTEINS” (Administración General de la Comunidad Autónoma de Euskadi, priority 2020, published 2024).

Tested on: human immortalized myoblasts (cell line 8220)
Test: 2-deoxyglucose treatment during myoblast proliferation
Format: cell-based
Excerpt: FIG. 2. Deficiency of TDP-43 or FUS curtails anaerobic glucose metabolism and induces pro-atrophic pathways in myoblasts. A-B-C, Metabolic switch during myogenesis. Myoblasts rely mainly on anaerobic glycolysis while differentiating myocytes and myotubes switch towards a more aerobic metabolism (n=6 experiments). D, shTDP-43 and shFUS-treated myoblasts display consistent reductions in basal glycolysis and glycolytic capacity (n=6 experiments). E, Levels of lactate are decreased in shTDP-43 and shFUS-treated myoblasts (n=3). F, Basal mitochondrial ATP production is slightly affected by TDP-43 or FUS silencing, however effects on spare respiratory capacity are variable (n=6 experiments). G, Immunofluorescence and immublot images of MyoD in 2dg-treated myoblasts. H, Immunostaining images showing the effect of 2dg on the number of MyHC-postive myotubes. I, Pro-atrophic pathways of the […] (UPS) are dramatically augmented in shTDP-43 and shFUS-treated myoblasts (n=3). ECAR, Extracellular Acidification Rate; OCR, Oxygen Consumption Rate: 2dg, 2-deoxyglucose. T-test, *p<0.05; **p<0.01.
Decreased levels of lactate in homogenates from shTDP-43 and shFUS-treated myoblasts when compared to those from shRNA-treated myoblasts corroborated defects in the anaerobic oxidation of glucose (FIG. 2E). […] The increased numbers of mitochondria, as observed by TEM and TOMM20 staining (FIG. 1F,G), may provide a compelling explanation for the increased aerobic potential of shTDP-43 treated myoblasts.
A poor metabolic fitness in muscle is often associated to the upregulation of protein degradation pathways and atrophy. Expression of the key muscle specific E3 ubiquitin ligases, muscle RING finger 1 (MuRF1) and muscle atrophy F-box (MAFbx)/Atrogin-1, are markers of the activation of ubiquitin/proteasome system and atrophy in skeletal muscle.

[1] = 2-DG during myoblast proliferation

With O=CC[C@@H](O)[C@H](O)[C@H](O)CO [2-DG, 2-deoxyglucose] the “activation of MYOD” value [1] was “reduced the activation of MYOD”, the “myogenic process (MyHC-positive myotubes)” value [1] was “stalled the myogenic process” and the “expression levels of MurF1 and Atrogin-1” value (2-DG treated myoblasts) was “mimicked the effects of TDP-43 and FUS silencing”.
